Where two headings read alike, the source gives them in different places.
Experiments:
[1] = Solubility of various trioxopyrimidines in the presence of HPβCD; assay type: physicochemical; details: HPβCD solution, 37 °C, aqueous with cosolvent or surfactant or cyclodextrin, thermodynamic from solid, read-out: Concentration (solubility)
Procedure: 1.1 Weigh 20 mg of compound I. Add 2 ml of solution of HPβCD 200 mM. Stir for 24 h at 37° C. Filter in Millipore filter Millex HV 0.45 μm. The solution obtained after filtration contains the complex compound I-CD in solution.
1.2. Weigh 2.5 mg of compound I. Add 2 ml of solution of HPβCD 200 mM. Stir at 37° C. for 24 h or until compound I is completely dissolved. The solution obtained in this way contains the complex compound I-CD.
At the time of a complex formation, compound I, practically insoluble in water (<0.6 μg/ml, MW: 485), solubilizes dramatically. The increase in the solubility of compound I is thus proof of a complex formation between Compound I and the CD. Complex formation and achievement of the equilibrium is found at 20% after 1 day, 40% after 4 days, and 100% after 7 days. The solubility diagrams (FIG. 1) are carried out by adding an excess of compound I to the CD solutions of increasing concentration. After 7 days of stirring in thermostatically controlled baths at 37° C., these solutions are filtered and the solubilized compound I quantity is dosed by HPLC. The βCD and the γCD as well as their synthetic derivatives have allowed complexes with compound I to be formed. The β-CD and the HPβCD come from ROQUETTE (France), the RMβCD and the γCD have been supplied by Wacker (Germany).
The flasks containing compound I and the cyclodextrins are placed being stirred in thermostatically controlled baths at 37° C. for 7 days, so that the complexation balance is reached. After this time, the suspensions are filtered with the help of a milli-pore filter 0.22 μm in PVDF and the filtrate is dissolved in DMSO in the mobile phase to obtain concentration samples situating themselves on the calibrating line. They are then dosed thanks to the validated HPLC method, described below.
Solubility is investigated according to Examples 1 and 2.

[2] = Differential solubility in acetonitrile of free and complexed compound I; assay type: physicochemical
From the text: Compound I has different solubility when it is in the complex form or not. […] In these conditions the included drug remains trapped and becomes insoluble in the solvent. This technique of differential solubility between compound I in the free or in the complexed form can be applied to evaluate the percentage of complexation.

Compound | solubility ([1]; HPβCD 10 mM) [µg/mL] | solubility ([1]; HPβCD 25 mM) [µg/mL] | solubility ([1]; HPβCD 50 mM) [µg/mL] | solubility ([1]; HPβCD 100 mM) [µg/mL] | solubility ([1]; HPβCD 200 mM) [µg/mL] | Solubility in acetonitrile [2]
O=C1NC(=O)C(c2ccc(Oc3ccccc3)cc2)(N2CCN(c3ncccn3)CC2)C(=O)N1 [Compound II, 5-(4-Phenoxy-phenyl)-5-(4-pyrimidin-2-yl-piperazin-1-yl)-pyrimidine-2,4,6-trione] | 1300 | 3400 | 3800 | 5900 | 9300 | 
O=C1NC(=O)C(c2ccc(Oc3ccc(Cl)cc3)cc2)(N2CCN(c3ncccn3)CC2)C(=O)N1 [Compound III, 5-[4-(4-Chloro-phenoxy)-phenyl]-5-(4-pyrimidin-2-yl-piperazin-1-yl)-pyrimidine-2,4,6-trione] | 800 | 2400 | 3100 | 6100 | 9500 | 
O=C1NC(=O)C(c2ccc(Oc3ccc(Cl)c(Cl)c3)cc2)(N2CCN(c3ncccn3)CC2)C(=O)N1 [Compound IV, 5-[4-(3,4-Dichloro-phenoxy)-phenyl]-5-(4-pyrimidin-2-yl-piperazin-1-yl)-pyrimidine-2,4,6-trione] | 100 | 200 | 900 | 2700 | 7900 | 
O=C1NC(=O)C(c2ccc(Oc3ccc(Br)cc3)cc2)(N2CCN(c3ncccn3)CC2)C(=O)N1 [Compound V, 5-[4-(4-Bromo-phenoxy)-phenyl]-5-(4-pyrimidin-2-yl-piperazin-1-yl)-pyrimidine-2,4,6-trione] | 800 | 2400 | 5400 | 6600 | 9900 | 
Hydroxypropyl β-cyclodextrin [HP-β-CD] |  |  |  |  |  | insoluble

Reference: patent US8044035B2, “Pharmaceutical compositions of pyrimidine-2,4,6-triones” (priority 2004, dated 2011)
